Assay results taken from the METLIN SMRT retention time set (Domingo-Almenara et al. 2019).

Assay: gradient 5% acetonitrile 3 min, to 50% in 2 min, to 85% in 15 min, held 3 min, 100 µL/min
Settings: column: Zorbax Extend-C18 2.1 x 50 mm; eluents: water / acetonitrile, 0.1% formic acid
How it was run: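 In both positive and negative ionization mode, a quadrupole time-of-flight mass spectrometer coupled to HPLC analyzed pure standards run in mixtures of ~100 molecules. The Zorbax Extend-C18 column (2.1 × 50 mm, 1.8 μm) was operated at 100 μL/min with water and acetonitrile, each containing 0.1% formic acid. The dead volume was 40 μL and the dwell volume 900 μL. Retention time came from adduct peaks that were computationally picked and individually inspected by hand.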

SMILES	RP-LC retention time [s]
CC1(c2ccccc2)O[C@@H]2C[C@H]3[C@@H]4CCC5=CC(=O)C=C[C@]5(C)[C@@]4(F)[C@@H](O)C[C@]3(C)[C@]2(C(=O)CO)O1 (stereo not given in full)	870
Cc1ccc(CNC(=O)N2CC=C(c3cn(C)c4ncccc34)CC2)cc1	818
Cc1sc(-c2cc(C(F)(F)F)on2)cc1S(=O)(=O)N1CCN(C2CCCCC2)CC1	857
CCC(=O)NC(c1ccc(N(C)C)cc1)c1ccc2cccnc2c1O (stereo not given)	620
COc1ccc(CNC(=O)c2cn3ccc(C)cc3n2)cc1OC	604
Cc1c(C(=O)NCCOc2ccc3c(c2)OCO3)cccc1[N+](=O)[O-]	778
COc1cc(Cl)c(C)cc1NC(=O)Cn1ncc2c(N3CCN(c4ccccn4)CC3)ncnc21	678
CCN1CCC2(CC1)N=C(c1ccc(F)cc1)CC(c1cc(Cl)ccc1O)N2 (stereo not given)	635
CC(C)CCNC(=O)C1CCN(c2cncnc2N2CCN(C)CC2)CC1	561
COc1ccc(S(=O)(=O)Nc2cc(-c3cn4ccc(C)cc4n3)ccc2C)cc1OC	652
COc1cccc(CNC(=O)c2cn3cccc(C)c3n2)c1OC	541
CCc1nc(-c2cccc(-c3noc(CNS(=O)(=O)c4ccc(Cl)cc4)n3)c2)cs1	1130
CC(C)(C)c1ccc(-c2noc(CN3C(=O)COc4cc(Cl)ccc43)n2)cc1	1360
CC1CCC(N2CC(=O)N(CCN3CCOCC3)C(c3cccnc3)C2=O)CC1 (stereo not given)	548
Cc1cccc(N2CCN(Cc3nc4nc(C)cc(N5CCOCC5)n4n3)CC2)c1	636
CN(C)c1nn(CC(=O)Nc2ccc(F)cc2Cl)c(=O)c2ccccc12	913
O=C1N(CCNS(=O)(=O)c2cnc[nH]2)C(c2ccccc2)C12CCCCC2 (stereo not given)	740
COCCCNC(=O)C1CCCN(S(=O)(=O)c2ccc(OC)c(OC)c2)C1 (stereo not given)	699

SMILES	RP-LC retention time [s]
O=C(c1cccs1)N1[C@H]2CC[C@@H]1c1cnc(-c3ccc(F)cc3)nc1C2	979
Cc1ccc(-c2ccc(-n3nc(C)c(S(=O)(=O)Nc4ccc5c(c4)OCCO5)c3C)nn2)cc1	1010
OCC1CN(C2CCC2)CC12CCN(Cc1ccccc1F)CC2 (stereo not given)	591
CCOC(=O)Cn1cnc2c(-c3ccc(Br)cc3)csc2c1=O	998
O=c1ccn(-c2ccc(F)c(F)c2)nc1-c1nc(-c2ccc3c(c2)OCO3)no1	877
COc1ccc(-c2nnc(Cc3nc(-c4ccccc4C)no3)o2)cc1OC	957
O=C(Nc1nc2c(s1)COc1ccccc1-2)C1COc2ccccc2O1 (stereo not given)	980
Cc1ccc(CNC(=O)c2nc(Cn3c(=O)oc4ccc(Cl)cc43)no2)cc1	983
COc1ccc(C2(C(=O)N3CC(c4nc(CCOCC5CCOCC5)no4)C3)CC2)cc1	812
CCCC(=O)N1CCc2c([nH]c3ccccc23)C1c1ccc(C)cc1 (stereo not given)	1150
CC(=O)N(Cc1nn(C)c2c1CN(S(=O)(=O)c1cc(F)ccc1F)CC2)c1ccccc1	800
O=C(Cn1c(SCc2cccc(F)c2)nc2cccnc21)N1CCCC1	647
COc1ccc(N2CC(C(=O)Nc3cc(C)nn3C3CCS(=O)(=O)C3)CC2=O)cc1 (stereo not given)	638
O=C(Nc1cccn2ncnc12)c1ccc(Cl)s1	820
COc1ccc(N2CC(c3noc(-c4ccc(OC)c(OC)c4)n3)CC2=O)cc1 (stereo not given)	839
COc1ccccc1-c1nc(-c2ccc(S(=O)(=O)N3CCC(C)CC3)cc2)no1	1290
CN1CCN(CCCNC(=O)Cn2c(=O)c3cccn3c3ccc(F)cc32)CC1	589
